Results on 20 molecules are retold here after ChEMBL document CHEMBL1156598 (J Med Chem, 2008).

One assay addresses Cytochrome P450 3A4 (Homo sapiens, UniProt P08684). Kind of assay: Inhibition of recombinant CYP3A4 expressed in baculovirus-infected insect microsomes. The class given is ADME, Microsome.
Assay [1] addresses T1, Steroid 17-alpha-hydroxylase/17,20 lyase (Homo sapiens, UniProt P05093).
T1 sequence (P05093 whole entry): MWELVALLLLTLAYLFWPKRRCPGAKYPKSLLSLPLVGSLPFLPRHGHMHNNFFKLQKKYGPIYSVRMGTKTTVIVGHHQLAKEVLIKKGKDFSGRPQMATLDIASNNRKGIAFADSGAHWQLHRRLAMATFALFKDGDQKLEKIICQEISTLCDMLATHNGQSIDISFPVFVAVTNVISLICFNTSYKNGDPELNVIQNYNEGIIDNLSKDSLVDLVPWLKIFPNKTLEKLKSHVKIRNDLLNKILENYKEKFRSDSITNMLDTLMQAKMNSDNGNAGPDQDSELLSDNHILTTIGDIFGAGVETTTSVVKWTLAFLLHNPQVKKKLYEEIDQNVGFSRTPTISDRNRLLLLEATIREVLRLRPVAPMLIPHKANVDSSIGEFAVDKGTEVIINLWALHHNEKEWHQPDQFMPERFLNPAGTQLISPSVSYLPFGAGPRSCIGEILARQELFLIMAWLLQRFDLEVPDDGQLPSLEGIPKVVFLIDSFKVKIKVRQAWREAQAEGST
Kind of assay: Inhibition of human recombinant CYP17 expressed in Escherichia coli coexpressing NADPH-P450 reductase.

For assay [2], the target named is T2, Cytochrome P450 11B1, mitochondrial (Homo sapiens, UniProt P15538).
T2 sequence (P15538 whole entry): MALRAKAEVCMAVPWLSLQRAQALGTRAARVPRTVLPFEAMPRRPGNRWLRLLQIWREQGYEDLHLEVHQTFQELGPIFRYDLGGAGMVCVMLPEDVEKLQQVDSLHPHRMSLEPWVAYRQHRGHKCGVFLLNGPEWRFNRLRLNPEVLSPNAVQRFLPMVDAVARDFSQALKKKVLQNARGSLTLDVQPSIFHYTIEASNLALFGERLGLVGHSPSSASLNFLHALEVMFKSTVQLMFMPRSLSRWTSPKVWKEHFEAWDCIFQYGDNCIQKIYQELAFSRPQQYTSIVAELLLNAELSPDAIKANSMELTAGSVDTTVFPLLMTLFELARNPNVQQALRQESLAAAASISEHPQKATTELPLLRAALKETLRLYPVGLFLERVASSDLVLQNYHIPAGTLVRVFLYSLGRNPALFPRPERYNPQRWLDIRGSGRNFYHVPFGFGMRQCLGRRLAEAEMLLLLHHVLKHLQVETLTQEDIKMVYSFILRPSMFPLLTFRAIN
Kind of assay: Inhibition of human CYP11B1 expressed in hamster V79MZh11B1 cells. The class given is cell-based.

For assay [3], the target named is T3, Cytochrome P450 11B2, mitochondrial (Homo sapiens, UniProt P19099).
T3 sequence (P19099 whole entry): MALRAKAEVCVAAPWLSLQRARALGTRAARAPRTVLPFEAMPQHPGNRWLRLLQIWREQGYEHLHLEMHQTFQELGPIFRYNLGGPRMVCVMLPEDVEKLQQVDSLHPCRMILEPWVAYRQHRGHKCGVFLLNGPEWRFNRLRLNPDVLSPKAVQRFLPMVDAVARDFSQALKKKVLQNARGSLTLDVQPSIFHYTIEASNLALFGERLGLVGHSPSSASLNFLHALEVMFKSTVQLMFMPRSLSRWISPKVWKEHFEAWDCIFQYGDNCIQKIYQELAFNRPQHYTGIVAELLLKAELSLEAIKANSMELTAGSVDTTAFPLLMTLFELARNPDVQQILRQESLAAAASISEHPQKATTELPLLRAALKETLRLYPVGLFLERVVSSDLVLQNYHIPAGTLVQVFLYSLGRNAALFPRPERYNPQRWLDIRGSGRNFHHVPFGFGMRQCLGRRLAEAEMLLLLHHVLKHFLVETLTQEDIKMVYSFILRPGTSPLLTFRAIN
Kind of assay: Inhibition of human CYP11B2 expressed in hamster V79MZh11B2 cells. In kind it is cell-based.

Cytochrome P450 3A4, sequence (P08684 whole entry): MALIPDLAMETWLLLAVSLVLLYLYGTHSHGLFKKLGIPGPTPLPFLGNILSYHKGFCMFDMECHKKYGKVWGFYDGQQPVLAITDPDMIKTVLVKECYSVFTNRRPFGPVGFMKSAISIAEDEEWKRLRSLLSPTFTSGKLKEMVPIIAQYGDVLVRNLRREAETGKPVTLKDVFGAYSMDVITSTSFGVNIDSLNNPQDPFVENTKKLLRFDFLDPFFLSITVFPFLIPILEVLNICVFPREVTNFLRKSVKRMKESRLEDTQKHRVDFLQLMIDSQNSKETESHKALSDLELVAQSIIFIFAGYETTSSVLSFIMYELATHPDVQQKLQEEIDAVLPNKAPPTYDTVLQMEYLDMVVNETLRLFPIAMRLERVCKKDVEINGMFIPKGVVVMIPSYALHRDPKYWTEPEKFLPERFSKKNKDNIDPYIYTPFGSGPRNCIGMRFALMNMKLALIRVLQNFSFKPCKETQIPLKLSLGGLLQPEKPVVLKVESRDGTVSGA

With `OC1(c2ccncc2)CCCc2cc(-c3ccc(F)c(F)c3)ccc21` (stereo unspecified), the IC50 at Cytochrome P450 3A4 turned out to be 13.8 µM.

As for `COc1ccc(-c2ccc3c(c2)CCCC3(O)c2ccncc2)cc1F` (stereo unspecified), the half-inhibitory concentration (IC50) in assay [1] was over 5 µM; in assay [2], 0.686 µM; in assay [3], 0.945 µM; at Cytochrome P450 3A4 it was 15.2 µM.

Take `Oc1ccc(-c2ccc3c(c2)CCC=C3c2ccncc2)cc1F`: the IC50 in assay [1] is 0.188 µM; in assay [2] it was 2.75 µM; in assay [3] it was 0.991 µM; at Cytochrome P450 3A4, 2.11 µM.

As to `Fc1ccc(-c2ccc3c(c2)CCC3c2cccnc2)cc1` (stereo unspecified), the IC50 was over 20 µM in assay [1] and 1.7 µM on Cytochrome P450 3A4.

Consider `Fc1ccc(-c2ccc3c(c2)CCC3c2ccncc2)cc1` (stereo unspecified), for which the IC50 amounted to 0.233 µM in assay [1], 1.08 µM in assay [2], 0.543 µM in assay [3] and 1.09 µM at Cytochrome P450 3A4.

With `Fc1ccc(-c2ccc3c(c2)CCCC3c2ccncc2)cc1` (stereo unspecified), the IC50 in assay [1] was 0.163 µM; in assay [2] it was over 5 µM; in assay [3], 0.518 µM; on Cytochrome P450 3A4 it was 2.17 µM.

As to `Oc1ccc(-c2ccc3c(c2)CCCC3c2ccncc2)cc1F` (stereo unspecified), the IC50 was determined as 0.064 µM in assay [1], 1.37 µM in assay [2], 0.587 µM in assay [3] and 3.39 µM at Cytochrome P450 3A4.

Regarding `COc1ccc(-c2ccc3c(c2)CC=C3c2ccncc2)cc1`, the IC50 at Cytochrome P450 3A4 came out at 2.39 µM.

In the case of `Fc1ccc(-c2ccc3c(c2)CCC=C3c2ccncc2)cc1`, the IC50 at Cytochrome P450 3A4 amounted to 4.2 µM.

As for `Fc1ccc(-c2ccc3c(c2)CCC=C3c2ccncc2)cc1F`, the IC50 was over 5 µM in assay [1], over 20 µM in assay [2], 0.311 µM in assay [3] and 3.64 µM at Cytochrome P450 3A4.

Take `OC1(c2cccnc2)CCc2cc(-c3ccc(F)cc3)ccc21` (stereo unspecified): the IC50 at Cytochrome P450 3A4 was over 20 µM.

Take `OC1(c2ccncc2)CCc2cc(-c3ccc(F)cc3)ccc21` (stereo unspecified): the IC50 at Cytochrome P450 3A4 is 3.23 µM.

Consider `COc1ccc(-c2ccc3c(c2)CCC3(O)c2ccncc2)cc1` (stereo unspecified), for which the IC50 at Cytochrome P450 3A4 amounted to 3.29 µM.

For the molecule `OC1(c2ccncc2)CCCc2cc(-c3ccc(F)cc3)ccc21` (stereo unspecified), the IC50 stood at 0.587 µM in assay [1], 1.16 µM in assay [2], 0.84 µM in assay [3] and 8.76 µM on Cytochrome P450 3A4.

On to `Fc1ccc(-c2ccc3c(c2)CC=C3c2ccncc2)cc1`, for which the IC50 at Cytochrome P450 3A4 came to 0.159 µM.

For `Oc1ccc(-c2ccc3c(c2)CCCC3c2ccncc2)cc1O` (stereo unspecified), at Cytochrome P450 3A4, the IC50 is 0.632 µM.

Consider `Fc1ccc(-c2ccc3c(c2)CC=C3c2cccnc2)cc1`, for which the values for the IC50 (in assay [1]; on Cytochrome P450 3A4) were 2.35 µM and 6.95 µM, respectively.

`Oc1ccc(-c2ccc3c(c2)CCC=C3c2ccncc2)cc1O`: the IC50 on Cytochrome P450 3A4 stood at 0.357 µM.

`COc1ccc(-c2ccc3c(c2)CCC3(O)c2ccncc2)cc1F` (stereo unspecified): the IC50 in assay [1] was over 10 µM; in assay [2], 0.291 µM; in assay [3], 0.436 µM; at Cytochrome P450 3A4, 3.36 µM.

As for `C[C@]12CC[C@H](O)CC1=CC[C@@H]1[C@@H]2CC[C@]2(C)C(c3cccnc3)=CC[C@@H]12` [ABIRATERONE], the IC50 in assay [3] came out at 1.75 µM.

As a reminder, the IC50 is the concentration that inhibits the measured activity by half.
